PMC10746708, “A small molecule iCDM-34 identified by in silico screening suppresses HBV DNA through activation of aryl hydrocarbon receptor” (Cell Death Discovery, 2023)

Tested on: HBV-infected PXB cells
Assay: pgRNA and OAS1 mRNA by qPCR in HBV-infected PXB cells
Type: cell-based, human
Details: 7 days
Description: mRNA expression levels were measured by qPCR using specific primers or sets of specific primers and probe. RNA was reverse transcribed using PrimeScript RT Master Mix (Takara Bio, Shiga, Japan) to synthesize complementary DNA (cDNA). OAS1,glyceraldehyde 3-phosphate dehydrogenase (GAPDH), β-actin mRNA expression levels were measured using specific primers and TB Green Premix Ex Taq II (Takara Bio). AhR (Hs00169233_m), CDK1 (Hs00938777_m), CDK2 (Hs01548894_m) mRNA expression levels were measured using specific probe and primer sets (Thermo Fisher Scientific, Waltham, MA, USA) and Probe qPCR mix (Takara Bio) in a CFX96 Touch Real-Time PCR Detection System (Bio-Rad Laboratories, Hercules, CA, USA). The specific primers used in this study were OAS1 (forward primer: 5′-[…]-3′, reverse primer: 5′-[…]-3′), reverse primer: 5′-[…]-3′, and GAPDH (forward primer: 5′-[…]-3′, reverse primer: 5′-[…]-3′). β-actin (forward primer: forward primer: 5′-[…]-3′ and reverse primer: 5′-[…]-3′). Expression levels were determined using the 2^–ΔΔCt method and were normalized to endogenous β-actin mRNA expression levels.
PXB cells were plated on 96-well plate and infected with three genome equivalents per cell of HBV C_AT [33], and the medium was changed every 3 or 4 days. […]

Q: Which results are given for `O=C(Nc1ccc(Br)cc1)c1ccn(Cn2cc([N+](=O)[O-])cn2)n1` [iCDM-34]?
A: pgRNA expression level (30 µM): significantly decreased; expression of OAS1 (ISG) (0.0003–30 μM): no increase
